# From ChEMBL document CHEMBL1141700, “Discovery of the catechol structural moiety as a Stat3 SH2 domain inhibitor by virtual screening” (Bioorg Med Chem Lett, 2008)
# The source made the active and inactive calls. The calls are words filed in the database; no cut-off is given here.
# Columns and labels:
# [1] = biological target: T1, Signal transducer and activator of transcription 3 (Homo sapiens, UniProt P40763); assay: Inhibition of Stat3 binding to DNA in human U266 whole cell lysate at 100 ug/ml by ELISA; assay type: cell-free; conditions: U-266
# [2] = biological target: T1, Signal transducer and activator of transcription 3; assay: Inhibition of Stat3 phosphorylation in human U266 whole cell lysate by Western blotting; assay type: cell-based; conditions: U-266
# [3] = biological target: T1, Signal transducer and activator of transcription 3; assay: Inhibition of Stat3 binding to DNA in human U266 whole cell lysate by ELISA; assay type: cell-free, U-266
# [4] = biological target: Signal transducer and activator of transcription 3 (Mus musculus) (UniProt P42227); assay: Displacement of pTyr705 from flag-tagged mouse Stat3 SH2 domain expressed in HEK293 cells up to 200 uM by fluorescence polarization
# Signal transducer and activator of transcription 3 (Mus musculus), sequence (P42227 whole entry, the tested form may be a part): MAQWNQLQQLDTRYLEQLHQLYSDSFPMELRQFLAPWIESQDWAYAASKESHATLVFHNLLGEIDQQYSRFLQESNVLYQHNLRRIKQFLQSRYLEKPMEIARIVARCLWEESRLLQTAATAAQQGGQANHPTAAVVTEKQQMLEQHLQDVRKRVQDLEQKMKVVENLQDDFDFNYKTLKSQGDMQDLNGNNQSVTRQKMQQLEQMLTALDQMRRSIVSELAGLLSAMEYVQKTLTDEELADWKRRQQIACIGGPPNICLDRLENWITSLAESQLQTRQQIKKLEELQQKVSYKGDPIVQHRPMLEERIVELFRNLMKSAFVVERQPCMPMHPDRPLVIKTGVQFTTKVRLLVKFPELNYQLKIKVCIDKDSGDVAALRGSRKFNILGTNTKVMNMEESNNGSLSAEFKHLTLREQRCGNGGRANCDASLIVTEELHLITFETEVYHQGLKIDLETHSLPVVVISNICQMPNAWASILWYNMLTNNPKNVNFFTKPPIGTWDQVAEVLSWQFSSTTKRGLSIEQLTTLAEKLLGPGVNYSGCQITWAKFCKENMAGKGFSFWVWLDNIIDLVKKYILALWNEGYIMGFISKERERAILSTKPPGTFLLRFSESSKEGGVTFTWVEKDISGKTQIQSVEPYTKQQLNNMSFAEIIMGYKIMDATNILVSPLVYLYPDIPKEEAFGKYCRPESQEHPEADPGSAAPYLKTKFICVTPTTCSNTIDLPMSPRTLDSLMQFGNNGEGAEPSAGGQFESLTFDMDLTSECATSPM
# T1 sequence (P40763 whole entry): as the sequence (P42227 whole entry, the tested form may be a part) above, with D760E counted along it
inhibition [1],Activity [2],IC50 [3],Activity [4],SMILES
8%,–,–,–,O=C(O)c1ccccc1/N=C\c1ccc(O)c(O)c1
57%,–,–,–,O=C(c1ccc(O)c(O)c1)c1cnc(NCc2ccc(F)cc2)s1
40%,Active,357 µM,inactive,O=C(Cc1ccc2c(c1)OCO2)NCCc1ccc(O)c(O)c1
56%,–,–,–,Oc1cccc(-c2nc3ccccc3s2)c1O
50%,–,–,–,Oc1ccc(CC/N=C/c2c(O)ccc3ccccc23)cc1O
51%,–,–,–,Oc1ccc(CC/N=C/c2cccc(O)c2O)cc1O
–,–,106 µM,–,Cc1oc(C)c2c(=O)cc(-c3ccc(O)c(O)c3)cc(O)c12
